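Grown in 96-well plates, cells were treated for 48 hours with each compound at five concentrations. Insufficient inhibition: endpoint recorded as highest concentration tested. TGI: concentration producing complete growth inhibition.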
Key:
Experiment in all cases: growth of human tumour cells (NCI), 48 h
786-0 renal = test system: 786-0 renal
A498 renal = test system: A498 renal
A549 NSCLC = test system: A549 NSCLC
ACHN renal = test system: ACHN renal
BT-549 breast = test system: BT-549 breast
CAKI-1 renal = test system: CAKI-1 renal
CCRF-CEM leukemia = test system: CCRF-CEM leukemia
COLO 205 colon = test system: COLO 205 colon
DU-145 prostate = test system: DU-145 prostate
EKVX NSCLC = test system: EKVX NSCLC
HCC-2998 colon = test system: HCC-2998 colon
HCT-116 colon = test system: HCT-116 colon
HCT-15 colon = test system: HCT-15 colon
HL-60(TB) leukemia = test system: HL-60(TB) leukemia
HOP-62 NSCLC = test system: HOP-62 NSCLC
HOP-92 NSCLC = test system: HOP-92 NSCLC
HS 578T breast = test system: HS 578T breast
HT29 colon = test system: HT29 colon
IGROV1 ovarian = test system: IGROV1 ovarian
K-562 leukemia = test system: K-562 leukemia
KM12 colon = test system: KM12 colon
M14 melanoma = test system: M14 melanoma
MALME-3M melanoma = test system: MALME-3M melanoma
MCF7 breast = test system: MCF7 breast
MDA-MB-231 breast = test system: MDA-MB-231 breast
MDA-MB-435 = test system: MDA-MB-435
MDA-N = test system: MDA-N
MOLT-4 leukemia = test system: MOLT-4 leukemia
NCI-H226 lung = test system: NCI-H226 lung
NCI-H23 lung = test system: NCI-H23 lung
NCI-H460 lung = test system: NCI-H460 lung
NCI-H522 lung = test system: NCI-H522 lung
NCI/ADR-RES ovarian = test system: NCI/ADR-RES ovarian
OVCAR-3 ovarian = test system: OVCAR-3 ovarian
OVCAR-4 ovarian = test system: OVCAR-4 ovarian
OVCAR-5 ovarian = test system: OVCAR-5 ovarian
OVCAR-8 ovarian = test system: OVCAR-8 ovarian
PC-3 prostate = test system: PC-3 prostate
RPMI-8226 leukemia = test system: RPMI-8226 leukemia
RXF 393 renal = test system: RXF 393 renal
SF-268 CNS = test system: SF-268 CNS
SF-295 CNS = test system: SF-295 CNS
SF-539 CNS = test system: SF-539 CNS
SK-MEL-2 melanoma = test system: SK-MEL-2 melanoma
SK-MEL-28 melanoma = test system: SK-MEL-28 melanoma
SK-OV-3 ovarian = test system: SK-OV-3 ovarian
SN12C renal = test system: SN12C renal
SNB-19 CNS = test system: SNB-19 CNS
SNB-75 CNS = test system: SNB-75 CNS
SR leukemia = test system: SR leukemia
T-47D breast = test system: T-47D breast
TK-10 renal = test system: TK-10 renal
U251 CNS = test system: U251 CNS
UACC-62 melanoma = test system: UACC-62 melanoma
UO-31 renal = test system: UO-31 renal
LOX IMVI melanoma = test system: LOX IMVI melanoma
SK-MEL-5 melanoma = test system: SK-MEL-5 melanoma
SW-620 colon = test system: SW-620 colon
UACC-257 melanoma = test system: UACC-257 melanoma

CC(=O)Oc1ccc2c(c1)c1c(OC(C)=O)c3ccccc3c(OC(C)=O)c1n2Cc1cccc(C)c1
TGI (786-0 renal): > 100 µM
TGI (A498 renal): 70.6 µM
TGI (A549 NSCLC): > 100 µM
TGI (ACHN renal): > 100 µM
TGI (BT-549 breast): > 100 µM
TGI (CAKI-1 renal): > 100 µM
TGI (CCRF-CEM leukemia): 62.6 µM
TGI (COLO 205 colon): > 100 µM
TGI (DU-145 prostate): > 100 µM
TGI (EKVX NSCLC): 57.3 µM
TGI (HCC-2998 colon): 84.2 µM
TGI (HCT-116 colon): > 100 µM
TGI (HCT-15 colon): > 100 µM
TGI (HL-60(TB) leukemia): > 100 µM
TGI (HOP-62 NSCLC): 67.3 µM
TGI (HOP-92 NSCLC): 33.5 µM
TGI (HS 578T breast): 78.3 µM
TGI (HT29 colon): > 100 µM
TGI (IGROV1 ovarian): > 100 µM
TGI (K-562 leukemia): > 100 µM
TGI (KM12 colon): > 100 µM
TGI (M14 melanoma): > 100 µM
TGI (MALME-3M melanoma): > 100 µM
TGI (MCF7 breast): > 100 µM
TGI (MDA-MB-231 breast): > 100 µM
TGI (MDA-MB-435): > 100 µM
TGI (MDA-N): > 100 µM
TGI (MOLT-4 leukemia): > 100 µM
TGI (NCI-H226 lung): > 100 µM
TGI (NCI-H23 lung): > 100 µM
TGI (NCI-H460 lung): > 100 µM
TGI (NCI-H522 lung): 52.8 µM
TGI (NCI/ADR-RES ovarian): > 100 µM
TGI (OVCAR-3 ovarian): 72.9 µM
TGI (OVCAR-4 ovarian): > 100 µM
TGI (OVCAR-5 ovarian): > 100 µM
TGI (OVCAR-8 ovarian): > 100 µM
TGI (PC-3 prostate): > 100 µM
TGI (RPMI-8226 leukemia): 74.4 µM
TGI (RXF 393 renal): > 100 µM
TGI (SF-268 CNS): > 100 µM
TGI (SF-295 CNS): 72.3 µM
TGI (SF-539 CNS): 79.3 µM
TGI (SK-MEL-2 melanoma): 48.4 µM
TGI (SK-MEL-28 melanoma): > 100 µM
TGI (SK-OV-3 ovarian): 53.5 µM
TGI (SN12C renal): > 100 µM
TGI (SNB-19 CNS): > 100 µM
TGI (SNB-75 CNS): 41.6 µM
TGI (SR leukemia): 83.1 µM
TGI (T-47D breast): > 100 µM
TGI (TK-10 renal): > 100 µM
TGI (U251 CNS): > 100 µM
TGI (UACC-62 melanoma): > 100 µM
TGI (UO-31 renal): > 100 µM

Cc1ccc(C2=Nn3c(nc4sc(-c5ccccc5)cc4c3=O)SC2)cc1
TGI (786-0 renal): > 100 µM
TGI (A498 renal): > 100 µM
TGI (A549 NSCLC): > 100 µM
TGI (ACHN renal): > 100 µM
TGI (BT-549 breast): > 100 µM
TGI (CAKI-1 renal): > 100 µM
TGI (CCRF-CEM leukemia): > 100 µM
TGI (COLO 205 colon): > 100 µM
TGI (DU-145 prostate): > 100 µM
TGI (EKVX NSCLC): > 100 µM
TGI (HCC-2998 colon): > 100 µM
TGI (HCT-116 colon): > 100 µM
TGI (HCT-15 colon): > 100 µM
TGI (HL-60(TB) leukemia): > 100 µM
TGI (HOP-62 NSCLC): > 100 µM
TGI (HOP-92 NSCLC): > 100 µM
TGI (HS 578T breast): > 100 µM
TGI (HT29 colon): > 100 µM
TGI (IGROV1 ovarian): > 100 µM
TGI (K-562 leukemia): > 100 µM
TGI (KM12 colon): > 100 µM
TGI (LOX IMVI melanoma): > 100 µM
TGI (MALME-3M melanoma): > 100 µM
TGI (MCF7 breast): > 100 µM
TGI (MDA-MB-231 breast): > 100 µM
TGI (MDA-MB-435): > 100 µM
TGI (MDA-N): > 100 µM
TGI (MOLT-4 leukemia): > 100 µM
TGI (NCI-H226 lung): > 100 µM
TGI (NCI-H23 lung): > 100 µM
TGI (NCI-H460 lung): > 100 µM
TGI (NCI-H522 lung): > 100 µM
TGI (NCI/ADR-RES ovarian): > 100 µM
TGI (OVCAR-3 ovarian): > 100 µM
TGI (OVCAR-4 ovarian): > 100 µM
TGI (OVCAR-5 ovarian): > 100 µM
TGI (OVCAR-8 ovarian): > 100 µM
TGI (PC-3 prostate): > 100 µM
TGI (RPMI-8226 leukemia): > 100 µM
TGI (SF-268 CNS): > 100 µM
TGI (SF-295 CNS): > 100 µM
TGI (SF-539 CNS): > 100 µM
TGI (SK-MEL-28 melanoma): > 100 µM
TGI (SK-MEL-5 melanoma): > 100 µM
TGI (SK-OV-3 ovarian): > 100 µM
TGI (SN12C renal): > 100 µM
TGI (SNB-75 CNS): > 100 µM
TGI (SR leukemia): > 100 µM
TGI (SW-620 colon): > 100 µM
TGI (T-47D breast): > 100 µM
TGI (TK-10 renal): > 100 µM
TGI (U251 CNS): > 100 µM
TGI (UACC-257 melanoma): > 100 µM
TGI (UACC-62 melanoma): > 100 µM
TGI (UO-31 renal): > 100 µM

Reference: PubChem BioAssay (NCI)
